We go through two compounds from patent EP1564305A2, “Means for detecting and treating cancer cells resistant to therapeutic agents” (priority 2004, dated 2005).

SMILES strings stand for the structures. Entries after “also recorded” stand apart in the source; their conditions may differ.

Data set [1] concerns CAL33 human HNSCC cell line. Put plainly: cells. Format: cell-based. To be noted: CAL-33, MTT, 72h incubation, drug used alone. The procedure: (§1) The 3-(4,5-dimethylthiazol-2-yl)-2,5-diphenyltetrazolium bromide (MTT) cell proliferation assay was used to determine the growth inhibitory effect of gefitinib on the Hep2, CAL33 and […] human HNSCC cell lines. […] Each measurement was done in quadruplicate and the data were expressed as % proliferation of control cells incubated in the absence of drug.

For data set [2], the system named is Hep2 human HNSCC cell line. Put plainly: cells. Type of data set: cell-based. On the procedure:
as §1

Data set [3] deals with PC3 human HNSCC cell line. Put plainly: cells. Format: cell-based. To be noted: MTT, 72h incubation, drug used alone. On the procedure:
as §1

Data set [4] deals with human SC131 NSCLC xenograft. Format: in vivo, nude mice. The procedure:
(§2) The effect of gefitinib and PEITC alone or in combination on the growth of human tumor xenografts in nude mice was tested according to previously published procedures.
(§3) Briefly, tumor xenografts were maintained by successive s.c. transplantation of tumor fragments in 8-week old nude mice. Tumor growth curves were obtained by plotting the mean relative tumor volume (i.e. the volume at a given time divided by the volume at the start of the experiment) from groups of at least 5 mice against time. Gefitinib was administered per os at 40 or 120 mg/kg 5 days a week for 3 to 5 weeks, while PEITC dissolved in corn oil was administered per os at 20 to 90 mg/kg every 2 days.

For data set [5], the system named is human HEP-2 HNSCC xenograft. Also on record: species or system nude mice. To be noted: mouse, in vivo. On the procedure: as §2, §3
Data set [6] can be described thus: Toxicity in treated xenograft-bearing mice (weight loss, clinical observation). Format: in vivo, nude mice. To be noted: gefitinib 40 or 120 mg/kg per os 5 days a week; PEITC 20 to 90 mg/kg per os every 2 days. The procedure: as §3
Data set [7] has as its system human IC14 NSCLC xenograft. Put plainly: Tumor xenograft growth in nude mice. To be noted: gefitinib 120 mg/kg per os, 5 days a week for 3 to 5 weeks. Type of data set: in vivo. The procedure: as §2, §3
The subject of data set [8] is human IC9 NSCLC xenograft. Put plainly: Tumor xenograft growth in nude mice. To be noted: gefitinib 120 mg/kg per os, 5 days a week for 3 to 5 weeks. Format: in vivo. On the procedure:
as §2, §3

For data set [9], the system named is human TEP NSCLC xenograft. Put plainly: Tumor xenograft growth in nude mice. To be noted: gefitinib 120 mg/kg per os, 5 days a week for 3 to 5 weeks. Type of data set: in vivo. On the procedure:
as §2, §3

The subject of the next data set is advanced NSCLC. To be noted: 142 patients with refractory disease; cited from earlier work.
In the next data set the test system is NSCLC. To be noted: gefitinib added to chemotherapy; over 2000 previously untreated NSCLC patients; cited from earlier work.

The IC50 is the concentration that gives 50% inhibition. Low values mean inhibition by little substance, high ones a need for much substance. As for `S=C=NCCc1ccccc1` [PEITC, Phenylethyl isothiocyanate], the IC50 in data set [1] is 180 µM; in data set [2] (Homo sapiens, HEP-2, MTT, 72h incubation, drug used alone), 350 µM; in data set [3] it was 490 µM. The “inhibition of tumor growth” value in data set [4] (mouse, in vivo) is on record as “neither gefitinib or PEITC had any antitumor effect”; in data set [5], “neither gefitinib or PEITC had any antitumor effect”. The “toxicity, judged by absence of weight loss and clinical observation” value in [6] is reported as “No toxicity was observed”.

Consider `COc1cc2ncnc(Nc3ccc(F)c(Cl)c3)c2cc1OCCCN1CCOCC1` [gefitinib, Gefitinib], for which the “increase in the IC50 for gefitinib, compared with CAL33 and PC3” value in data set [2] (Hep2 versus CAL33 and PC3) turned out to be 4 fold. Further, the tumor growth response result is listed as “responded” in [7]; “sensitive; also recorded: responded” in data set [8]; “responded” in [9]; “refractory; also recorded: did not respond” in data set [4] (gefitinib 120 mg/kg per os, 5 days a week for 3 to 5 weeks). Moreover, the “toxicity, judged by absence of weight loss and clinical observation” value in [6] is reported as “No toxicity was observed”. Moreover, the response rate in the data set with advanced NSCLC is on record as 10%. For the same compound, the “benefit in survival, tumor response, or time to progression” value in the data set with NSCLC was “no benefit”.
